From patent publication US20260356849A1, “COMPOUNDS AND METHODS FOR TREATING CANCERS” (CEDARS-SINAI MEDICAL CENTER, priority 2022, published 2026)
“Also recorded” adds a separate entry of the source.

What was measured:
[1] = test system: HEK293 cells; experiment: Cell cycle flow cytometry HEK293; format: cell-based; conditions: 1-5 μM, 24 hours
[2] = test system: human hepatocytes; experiment: Annexin V-FITC/propidium iodide assay human hepatocytes; format: cell-based; conditions: 5 μM, 24-48 hours
Protocol: FIG. 8 depicts, in accordance with various embodiments of the invention, results of an annexin V-FITC/propidium iodide binding assay performed in human and mouse hepatocytes, AML12, HEK293, HepG2, and RKO cells after treatment with 5 μM of a GIT1 inhibitor or DMSO for 24-48 hours (results are shown as mean±SE from at least 3 experiments. *p<0.05 vs. DMSO).
An annexin V-FITC/propidium iodide (PI) binding assay was performed with flow cytometry. […] Both G2/M arrest and cell death are mechanisms by which compound C3 inhibits cancer cells' growth.

[3] = test system: non-malignant (HEK293, AML12) cells; experiment: EdU/MTT growth assay in non-malignant cells; format: cell-based; conditions: 10 μM, 24 hours
Protocol: The inventors identified nine inhibitors and perfomed an EdU assay after treating non-malignant (HEK293, AML12) and malignant (HepG2, MzChA-1, HT-29, RKO) cells with varying concentrations of GIT1 inhibitor for 24 hours (results are mean±SE from 3 independent experiments done in duplicates, *p<0.05 vs. DMSO). An MTT assay was also performed after treating primary human and mouse hepatocytes and liver and colon cancer cells with varying concentrations of GIT1 inhibitor for 24 hours (results are mean±SE from 3 independent experiments done in duplicates, *p<0.05 vs. DMSO). […] Percoll may be used to remove dead human hepatocytes.

[4] = test system: HepG2 cells; experiment: Cell cycle flow cytometry HepG2; format: cell-based; conditions: 1-5 μM, 24 hours
[5] = test system: HepG2 cells; experiment: Clonogenic assay HepG2; format: cell-based; conditions: 1 μM, 24 hours then drug free medium 10-20 days; dose dependent
Protocol: RKO, HepG2, and AML12 cells were treated with 1-10 μM compound C3 for 24 hours and maintained in drug free medium for 10-20 days.

[6] = test system: Cyclin D1; experiment: Cyclin D1 protein level in cancer cells; format: cell-based; conditions: 10 μM, 24 hours
[7] = test system: RKO cells; experiment: RKO growth in liver of nude mice; format: in vivo; conditions: 25 mg/kg ip daily for 5 days
Protocol: FIG. 39A-FIG. 39D depicts, in accordance with various embodiments of the invention, compound C3 inhibits human CRC growth in liver. RKO cells (2×10^6) stably expressing luciferase were injected into the liver of nude mice. Twenty days later (day 0) DMSO and compound C3 were injected intraperitoneally (ip) in FIG. 39A pilot experiment using 10 mg/kd/d×5 days, rest 2 days and repeat. FIG. 39B 25 mg/kg daily for 5 days and imaged on day 7 using IVIS Spectrum photon-counting device optical imaging system (Xenogen, Alameda, CA.). FIG. 39C graph summarizes luciferase intensity from FIG. 39B. FIG. 39D gross pictures of the livers at day 7 from FIG. 39B, point to tumors *p<0.05.
Compound C3 powder was dissolved in pure DMSO at 50 mg/ml, as a stock store in-80 °C. Stock solution was dissolved in 200 μl 0.9% saline to reach 25 mg/kg. For control group, DMSO was dissolved in 200 μl saline to achieve a concentration of DMSO in saline of 7.5%. RKO cells (2×106) stably expressing luciferase were injected directly into the liver of nude mice. Twenty days later DMSO and Compound C3 were injected intraperitoneally (ip) at a dose of 25 mg/kg daily for 5 days and imaged on day 7.

[8] = target: GIT1-cyclin B1 interaction (Homo sapiens, UniProt Q9Y2X7); experiment: Co-IP GIT1-cyclin B1 interaction in HepG2; format: cell-based; conditions: HepG2, 10 μM, 24 h
GIT1-cyclin B1 interaction, sequence (Q9Y2X7 whole entry): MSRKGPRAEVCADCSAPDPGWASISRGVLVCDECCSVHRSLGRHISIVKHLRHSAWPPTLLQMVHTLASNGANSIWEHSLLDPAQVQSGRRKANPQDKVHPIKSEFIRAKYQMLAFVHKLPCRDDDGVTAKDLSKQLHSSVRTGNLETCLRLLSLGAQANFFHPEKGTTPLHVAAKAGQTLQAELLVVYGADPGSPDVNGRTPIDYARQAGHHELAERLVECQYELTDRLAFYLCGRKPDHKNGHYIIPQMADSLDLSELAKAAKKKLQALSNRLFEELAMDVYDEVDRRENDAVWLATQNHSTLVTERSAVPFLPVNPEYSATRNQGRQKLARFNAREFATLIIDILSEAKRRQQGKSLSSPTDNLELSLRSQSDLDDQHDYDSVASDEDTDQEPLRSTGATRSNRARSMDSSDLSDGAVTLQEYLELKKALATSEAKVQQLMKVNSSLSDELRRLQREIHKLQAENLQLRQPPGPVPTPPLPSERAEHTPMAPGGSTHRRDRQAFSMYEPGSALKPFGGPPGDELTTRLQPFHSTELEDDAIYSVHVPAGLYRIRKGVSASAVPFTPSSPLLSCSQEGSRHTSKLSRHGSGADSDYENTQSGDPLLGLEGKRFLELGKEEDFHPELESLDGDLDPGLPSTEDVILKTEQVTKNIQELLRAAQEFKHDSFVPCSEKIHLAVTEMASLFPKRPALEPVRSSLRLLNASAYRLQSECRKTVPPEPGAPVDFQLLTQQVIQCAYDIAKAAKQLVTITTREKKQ
Protocol: HepG2 cells were treated with compound C3 at 10 μM for 24 h and subjected to co-IP with anti-GIT1 or anti-cyclin B1 and blotted for cyclin B1 and GIT1, ratios of cyclin B1 bound to GIT1 vs. DMSO control are shown, *p<0.05 vs. DMSO from n=3 (FIG. 38B).
In vitro translated GIT1, recombinant MAT2B, and cyclin B1 (both 0.5 μg) were used to evaluate their direct binding, as shown in the blots of FIG. 18A. Also shown, is the results of (FIG. 18B) treating HepG2 cells with a GIT1 inhibitor at 10 μM for 24 hours and subjected to co-IP with anti-GIT1 or cyclin B1 antibody and immunoblotted for cyclin BI and GIT1. In vitro translated GIT1, recombinant MAT2B, and cyclin B1 (both 0.5 μg) were used to evaluate their direct binding. The ratio of cyclin BI bound to GIT1 was compared to DMSO control.

[9] = test system: MEK and ERK activity; experiment: Western blot ERK and MEK activity in RKO cells; format: cell-based, human; conditions: 2-10 μM, 24 hours
[10] = test system: RKO cells; experiment: Cell cycle flow cytometry RKO; format: cell-based, human; conditions: 1-5 μM, 24 hours
[11] = target: GIT1-MAT2B (Homo sapiens, UniProt Q9Y2X7); experiment: Co-IP MAT2B-GIT1 interaction in HepG2 cells; format: cell-based; conditions: HepG2, 10 μM, 24 hours
GIT1-MAT2B, sequence (Q9Y2X7 whole entry): as above
Excerpt: GIT1-MAT2B scaffold complex sequesters and activates RAS/RAF/MEK/ERK signaling.

[12] = test system: M2 macrophages (CD206+); experiment: Flow cytometry of macrophages in CRLM tumors; format: in vivo, mice
Excerpt: Liver tumors from CRLM model in syngeneic mice were processed for flow cytometry. […] In this subgroup, CD206+ was used to identify M2 macrophages.

[13] = test system: MC38 cells; experiment: Syngeneic subcutaneous MC38 mouse model; format: in vivo, C57/BL6 mouse
Protocol: MC38 cells were injected subcutaneously in both flanks. Compound C3 and DMSO were injected intratumorally every other day at 100 μM (5×IC50) starting at day 7 when the tumors averaged 0.5 cm in diameter. Tumor size was measured by caliper, with the tumor volume calculated according to the formula: (π/6)*(length*width*height). Each mouse received compound C3 injection in tumors on one flank and DMSO in the contralateral tumor. Animals were sacrificed on day 13.

[14] = test system: MEK and ERK activity; experiment: Western blot ERK and MEK activity in MC38 cells; format: cell-based; conditions: 10 μM, 24 hours
[15] = test system: CRC organoids from AKPS mice; experiment: EdU assay of CRC organoids; format: cell-based; conditions: "10M", 24 hours
Protocol: An EdU assay of CRC organoids from AKPS mice (APCF/Fp53F/FKRAS+SMAD4KOCDX2ERT+) was treated with […] of compound C3 for 24 hours.

[16] = 100 μM intratumorally every other day
[17] = 100 μM intratumorally, western blot

CC1(C)Cc2nc3sc4c(=O)n(CC(=O)NCc5ccco5)cnc4c3cc2CO1 [Compound C3, 2-(8,8-Dimethyl-4-oxo-7,10-dihydro-8H-pyrano[3″,4″: 5′,6′]pyrido[3′,2′: 4,5]thieno[3,2-d]pyrimidin-3 (4H)-yl)-N-(2-furylmethyl) acetamide]
G2/M arrest, HEK293 [1]: did not occur | cell death, human hepatocytes [2]: does not induce cell death | cytotoxicity in non-malignant cells [3]: not in non-malignant cells | G2/M phase, HepG2 [4]: G2/M phase was significantly increased | percentage of cells in G1 phase, HepG2 [4]: lowered the percentage of cells in G1 phase | clonogenic potential, HepG2 [5]: inhibited the clonogenic potential | Cyclin D1 protein level, cancer cells [6]: lower in cancer cells | overt toxicity [7]: without causing overt toxicity | tumor growth in liver ([7]; imaged day 7): effective in reducing tumor growth | GIT1-cyclin B1 interaction [8]: promotes their interaction; also recorded: enhances GIT1-cyclin BI interaction | ERK and MEK activities, RKO [9]: lower | G2/M phase, RKO [10]: G2/M phase was significantly increased | percentage of cells in G1 phase, RKO [10]: lowered the percentage of cells in G1 phase | GIT1-MAT2B scaffold formation [11]: disrupted GIT1-MAT2B scaffold formation | M2 macrophages in the tumors ([12]; CD206+, n=6 each group): dramatically reduced M2 macrophages | M1 and CD8+ T cells in the tumors ([12]; strong indication): raised MI and CD8+ T cells | H&E of tumors [13, 16]: spindle MC38 tumor cells turned into small round cells | H&E staining of major organs [13, 16]: no tissue damage or toxicity | PCNA staining in tumors [13, 16]: dramatic effect in reducing its staining | TUNEL assay of tumors [13, 16]: more apoptopic cells | body weights [13, 16]: not significantly different | tumor growth, subcutaneous ([13]; 100 μM intratumorally every other day from day 7, day 13): inhibits colon cancer growth | MEK1/2 activity in tumors [13, 17]: decreased MEK1/2 activity | cyclin D1 level in tumors [13, 17]: less cyclin D1 level | ERK and MEK activities, MC38 [14]: lower | CRC organoid appearance [15]: does not affect appearance | CRC organoid growth [15]: inhibits CRC organoids growth
